Results published in patent US9962350B2, “Agent for improving normal development rate of fertilized eggs” (SBI Pharmaceuticals Co., Ltd., priority 2014, dated 2018).

Tested on: fertilized eggs of the C57BL/6J lineage
Experiment: In vitro culture of natural mating-derived fertilized eggs in M16 medium supplemented with ALA; embryo development
Assay type: cell-based, mouse
Conditions: 37° C.
Excerpt: The female mice used to harvest fertilized eggs were female mice of the C57BL/6J lineage (21 weeks old to 27 weeks old, body weight: 21.0 to 24.5 g). The male mice used for mating were male mice of the C57BL/6J lineage (32 to 38 weeks old, body weight: 30.0 to 35.5 g). According to a routine method of controlled ovarian hyperstimulation, 5 U (units) of equine chorionic gonadotropin (serum gonadotrophin) (manufactured by ASKA Pharmaceutical Co., Ltd.) were intraperitoneally administered to each female mouse. 45 to 48 hours later, 5 U (units) of gonadotropin (human chorionic gonadotropin) (manufactured by ASKA Pharmaceutical Co., Ltd.) were intraperitoneally administered to each female mouse. Immediately after the administration of gonadotropin, each female mouse was mated with each male mouse described above.
On the next day, the presence or absence of a milky resin-like vaginal plug was determined for the mated female mice, and the oviducts were harvested from the female mice confirmed to have the vaginal plug. The harvested oviducts were left standing in physiological saline (0.9% (w/v) NaCl) for approximately 15 minutes and then transferred into M16 medium supplemented with approximately 300 μg/mL of hyaluronidase (manufactured by Sigma-Aldrich Corp.) for cumulus cell removal treatment. The oviducts were incised, and fertilized eggs were isolated and left standing at 37° C. for 5 to 10 minutes in a CO2 incubator. Then, the fertilized eggs separated from the cumulus cells were recovered and washed with hyaluronidase-unsupplemented M16 medium to remove hyaluronidase. The resulting cumulus cell-free fertilized eggs were left standing at 37° C. in a CO2 incubator.
Aside therefrom, a drop of 100 μL of M16 medium covered with mineral oil (manufactured by Sigma-Aldrich Corp.) and supplemented with ALA hydrochloride (manufactured by SBI Pharmaceuticals Co., Ltd.) at a final concentration of 0 μM (control), 0.1 μM, 0.5 μM, or 1 μM was prepared in a 35 mm Petri dish and left standing at 37° C. in a CO2 incubator. 29 or 30 of the cumulus cell-free fertilized eggs were transferred to the resulting drop and cultured in vitro at 37° C. in a CO2 incubator.
After a lapse of 24 hours, 48 hours, 72 hours, and 96 hours from the start of the in vitro culture (0 hours) in the drop, the developmental stage of each embryo was determined by observation under a stereoscopic microscope, and the number of embryos whose development progressed normally and change in development rate were calculated. Specifically, the number of 2-cell eggs 24 hours after the start of the culture, the number of 3-cell, 4-cell, and 8-cell eggs 48 hours thereafter, the number of morulae and blastocysts 72 hours thereafter, and the number of blastocysts 96 hours thereafter were counted as embryos whose development progressed normally at each stage. The development rate with the number of fertilized eggs (0 hours) defined as 100% is shown in Table 3 and the graph of FIG. 1. For the evaluation of the development rate, the percentage of the number of embryos whose development progressed normally 24 hours, 48 hours, 72 hours, and 96 hours after the start of the culture was calculated with the number of fertilized eggs (0 hours) defined as 100%, and used as a normal development rate. Because of the natural mating, the number of recovered fertilized eggs (0 hours) includes unfertilized eggs to some extent, and there is the possibility that the content of unfertilized eggs varies accidentally among fertilized eggs (0 hours) populations distributed to the respective condition groups even if the fertilized eggs (0 hours) populations have been recovered in the same experiment. The development rate calculated with the number of 2-cell embryos 24 hours postfertilization defined as 100% was calculated in order to eliminate the influence of the content of unfertilized eggs that varies accidentally among the respective condition groups. […]

For NCC(=O)CCC(=O)O [ALA, 5-aminolevulinic acid], the “The number of developed embryos” value (0.1 μM ALA, 24 hr) was 22, the “development rate with the number of fertilized eggs (0 hr) defined as 100%” value (“development rate … (0 hr) defined as 100%” for short) (0.1 μM ALA, 24 hr) was 73% and the “The number of developed embryos” value (0.1 μM ALA, 48 hr) was 19. The “development rate with the number of 2-cell embryos 24 hours postfertilization defined as 100%” value (0.1 μM ALA, 48 hr) was 86%, the “development rate … (0 hr) defined as 100%” value (0.1 μM ALA, 48 hr) was 63% and the “The number of developed embryos” value (0.1 μM ALA, 72 hr) was 14. The “development rate with the number of 2-cell embryos 24 hours postfertilization defined as 100%” value (0.1 μM ALA, 72 hr) was 64%, the “The number of developed embryos” value (0.1 μM ALA, 96 hr) was 7 and the “The number of developed embryos” value (0.5 μM ALA, 24 hr) was 24. The “development rate … (0 hr) defined as 100%” value (0.5 μM ALA, 24 hr) was 83%, the “The number of developed embryos” value (0.5 μM ALA, 48 hr) was 21 and the “development rate with the number of 2-cell embryos 24 hours postfertilization defined as 100%” value (0.5 μM ALA, 48 hr) was 88%. The “development rate … (0 hr) defined as 100%” value (0.5 μM ALA, 48 hr) was 72%, the “The number of developed embryos” value (0.5 μM ALA, 72 hr) was 14 and the “development rate with the number of 2-cell embryos 24 hours postfertilization defined as 100%” value (0.5 μM ALA, 72 hr) was 58%. The “The number of developed embryos” value (0.5 μM ALA, 96 hr) was 13, the “The number of developed embryos” value (1 μM ALA, 24 hr) was 19 and the “development rate … (0 hr) defined as 100%” value (1 μM ALA, 24 hr) was 66%. For the same molecule, the “The number of developed embryos” value (1 μM ALA, 48 hr) was 19, the “development rate with the number of 2-cell embryos 24 hours postfertilization defined as 100%” value (1 μM ALA, 48 hr) was 100% and the “development rate … (0 hr) defined as 100%” value (1 μM ALA, 48 hr) was 66%. For the same molecule, the “The number of developed embryos” value (1 μM ALA, 72 hr) was 15 and the “The number of developed embryos” value (1 μM ALA, 96 hr) was 13.
